The source of these data is ChEMBL document CHEMBL2150899, “Compound instability in dimethyl sulphoxide, case studies with 5-aminopyrimidines and the implications for compound storage and screening” (Bioorg Med Chem Lett, 2012).

Type in all cases: physicochemical
A short description of data set [1]: Drug degradation in alkalised DMSO assessed as 2,6-diamino-5-(2,6-diamino-4-oxopyrimidin-5(4H)-ylideneamino)pyrimidin-4(3H)-one formation.
Data set [2] is described as follows: Drug degradation in acidified DMSO.
Data set [3] can be described thus: Drug degradation in DMSO assessed as oxidation after two months. The settings on record: 1461 h.
Data set [4] in a line: Drug degradation in DMSO assessed as 2,6,8-triaminopyrimido[5,4-g]pteridin-4(3H)-one formation at 10 mM incubated over 2 months by UV-Vis spectrophotometry. The settings on record: 1461 h, 10000 µM.
The nature of data set [5]: Drug degradation in DMSO.
Data set [6] can be described thus: Drug degradation in alkalised DMSO assessed as 2,6,8-triaminopyrimido[5,4-g]pteridin-4(3H)-one formation after 24 hrs.
Data set [7] can be described thus: Drug degradation in DMSO assessed as 2,6,8-triaminopyrimido[5,4-g]pteridin-4(3H)-one formation after 11 days by UV-Vis spectrophotometry. The settings on record: 264 h.
The nature of data set [8]: Drug degradation in DMSO assessed as 2,6-diamino-5-(2,6-diamino-4-oxopyrimidin-5(4H)-ylideneamino)pyrimidin-4(3H)-one formation after 11 days by UV-Vis spectrophotometry. The settings on record: 264 h.
The nature of data set [9]: Drug degradation in DMSO assessed as 2,6-diamino-5-(2,6-diamino-4-oxopyrimidin-5(4H)-ylideneamino)pyrimidin-4(3H)-one formation at 10 mM incubated over 2 months by UV-Vis spectrophotometry. The settings on record: 1461 h, 10000 µM.
The nature of data set [10]: Drug degradation in DMSO after 7 days by NMR spectroscopy. The settings on record: 168 h.
The nature of data set [11]: Drug degradation in DMSO assessed as 2,6-diamino-5-(2,6-diamino-4-oxopyrimidin-5(4H)-ylideneamino)pyrimidin-4(3H)-one formation after 1 day by NMR spectroscopy. The settings on record: 24 h.
Data set [12] in a line: Drug degradation in DMSO assessed as ammonium cation formation after 2 days by NMR spectroscopy. Particulars: 48 h; call rule not given here.
The nature of data set [13]: Drug degradation in DMSO assessed as oxidation after overnight incubation.
The nature of data set [14]: Drug degradation in DMSO assessed as 2,6,8-triaminopyrimido[5,4-g]pteridin-4(3H)-one after 87 days by NMR spectroscopy. Particulars: 2088 h.
A short description of data set [15]: Drug degradation in DMSO assessed as methoxy group hydrolysis by NMR spectrophotometry.
Data set [16] in a line: Drug degradation in DMSO assessed as oxidation.
Data set [17] can be described thus: Drug degradation in DMSO assessed as pyrimido[5,4-g]pteridine-2,4,6,8-tetraamine formation by UV-Vis spectrophotometry.
A short description of data set [18]: Drug degradation in DMSO assessed as pyrimido[4,5-g]pteridine-2,4,7,9-tetraamine formation by UV-Vis spectrophotometry.
Data set [19] can be described thus: Drug degradation in DMSO by UV-Vis spectrophotometry.
Data set [20] can be described thus: Drug degradation in DMSO assessed as ammonium cation formation by NMR spectroscopy.
The nature of data set [21]: Drug degradation in DMSO assessed as 5-aminobarbiturate formation by UV-Vis spectrophotometry.
Data set [22] is described as follows: Drug degradation in DMSO assessed as murexide by UV-Vis spectrophotometry.
Data set [23] can be described thus: Drug degradation in DMSO after 2 months by UV-Vis spectrophotometry. Particulars: 1461 h.
Data set [24] is described as follows: Drug degradation in DMSO assessed as bis-alloxazine and pyrimido[4,5-g]pteridine-2,4,7,9(1H,3H,6H,8H)-tetraone formation.
A short description of data set [25]: Drug degradation in DMSO by NMR spectrophotometry.
A short description of data set [26]: Drug degradation in DMSO assessed as pyrimido[5,4-g]pteridine-4,6(3H,7H)-dione formation after 2 months. The settings on record: 1461 h.
The nature of data set [27]: Drug degradation in DMSO assessed as bis-alloxazine and pyrimido[4,5-g]pteridine-2,4,7,9(1H,3H,6H,8H)-tetraone formation after 3 months. Particulars: 2191.5 h.

Consider `Nc1nc(N)c(N)c(O)n1`, for which the Drug degradation result in data set [1], in data set [2], in data set [3], in data set [4], in [5] and in [6] was “Active” throughout. In addition, the Drug degradation entry in data set [7], in data set [8], in [9], in data set [10], in [11] and in data set [12] was “Active” each time. Besides, the Drug degradation result in data set [13] and in data set [14] was “Active” throughout.

Turning to `COc1nc(N)nc(OC)c1N`, the Drug degradation entry in data set [15], in data set [5] and in [16] was “Active” throughout.

For the compound `Nc1nc(N)c(N)c(N)n1`, the Drug degradation result in [17], in [5], in data set [13] and in [18] was “Active” in each case.

On to `Nc1cc(O)nc(N)n1`, for which the Drug degradation entry in data set [5] is “Not Active”.

As to `Nc1nc(S)[nH]c(=O)c1N`, the Drug degradation result in data set [19], in data set [5] and in data set [20] was “Active” throughout.

In the case of `Nc1c[nH]c(=O)[nH]c1=O`, the Drug degradation entry in [21], in [5] and in [22] was “Active” throughout.

Take `Nc1ncnc(N)c1N`: the Drug degradation result in data set [19] and in data set [23] was “Not Active” each time.

With `Nc1[nH]c(=O)[nH]c(=O)c1N`, the Drug degradation result in data set [5] and in data set [24] was “Active” each time.

With `Nc1nc(Cl)c(N)c(Cl)n1`, the Drug degradation entry in data set [19], in [25], in [5] and in data set [16] was “Active” each time.

On to `NC1C(=O)NC(=O)NC1=O`, for which the Drug degradation entry in [5], in [22] and in data set [20] was “Active” each time.

For the compound `Nc1ncnc(O)c1N`, the Drug degradation entry in data set [26] and in data set [5] was “Active” each time.

As for `Nc1c(Cl)ncnc1Cl`, in data set [16], the Drug degradation entry was “Not Active”.

As for `Nc1c[nH]c(=O)nc1N`, the Drug degradation entry in data set [5], in data set [27] and in [16] was “Active” each time.
